Laboratory results reported in patent US12023348B2, “EGR1 targeting molecules for the treatment of inflammatory and hyperproliferative conditions” (The Medical Research, Infrastructure and Health Services …, priority 2015, dated 2024).

What was measured:
SAMD9 [1] = assay: SAMD9 RNA expression by qRT-PCR in primary fibroblasts; type: cell-based, human; conditions: for SAMD9 expression in primary fibroblasts: 5 μM, 24 hours, qRT-PCR vs DMSO (FIG. 1C); for Dose and time dependence of SAMD9 up-regulation: primary fibroblasts, 5 μM over 72 hours, 1, 2, 5, 10 μM (FIGS. 2A-B)
Experimental: (§1) Primary fibroblasts were isolated from human adult skin and were grown in High Glucose DMEM, 10% Fetal Bovine Serum, L-glutamine and Pen-Strep. Medium was changed every 2-3 days. Cells were used at passage 2-3.
(§2) Of note, when cells were incubated with CaCx and ApDx (NCI, MA USA), they were grown in the appropriate medium with 0.1% FCS only.
(§3) RNA was extracted from cell cultures using an RNA extraction kit (Roche Diagnostics, Mahheim, Germany). cDNA was synthesized from 500 ng of total RNA using the Verso cDNA kit (Thermo Fisher Scientific, Waltham, MA, USA). cDNA PCR amplification was carried out using the Fast SYBR Green Master Mix in a StepOnePlus™ Real-Time PCR System (Applied Biosystems, Foster City, CA, USA) with gene-specific intron-crossing oligonucleotide pairs listed in Table 1 (below). For quantification, standard curves were obtained using serially diluted cDNA amplified in the same qRT-PCR run. The melting temperature (Tm) of the amplified products was measured to confirm the specificity of the reaction conditions. Cycling conditions were as follows: 95° C. for 10 minutes, 95° C. for 10 seconds, 62° C. for 15 seconds, and 72° C. for 25 seconds for a total of 40 cycles. Each sample was analyzed in triplicate. mRNA expression level for target gene was normalized to GAPDH. The results are based the amount of target, normalized to an endogenous reference (IACTB) and relative to a calibrator, as calculated by 2-ΔΔCT. All samples were run in triplicate. The expression levels of target genes were expressed as mRNA relative units.
(§4) The potential ability of these 31 molecules to induce SAMD9 expression in cell cultures was then scrutinized.

SAMD9 [2] = assay: SAMD9 RNA expression by qRT-PCR in TERC-transformed fibroblasts; type: cell-based, human; conditions: 5 μM, 24 hours, qRT-PCR vs DMSO (FIG. 1C)
Experimental: TERC-transformed fibroblasts were transformed with a pBABE-H2AGFP construct containing the human telomerase gene were cultured High Glucose DMEM, 10% FCS, L-glutamine and Pen-Strep (all cell culture regents from Biological Industries, Israel). Medium was changed every 2-3 days. Cells were used at passage 2-3.
as §2
as §3, with “Cycling conditions were as follows: 95° C. for 10 minutes, 95° C. for 10 seconds, 62° C. for 15 seconds, and 72° C. for 25 seconds for a total of 40 cycles.” left out, “All samples were run in triplicate. The expression levels of target genes were expressed as mRNA relative units.” left out

SAMD9 [3] = assay: SAMD9 RNA expression by qRT-PCR in HeLa cells; type: cell-based, human; conditions: for SAMD9 expression in HeLa cells: 5 μM, 24 hours, qRT-PCR vs DMSO (FIG. 1C); for SAMD9 expression fold change in HeLa cells: fold increase in RNA gene expression vs cells treated with vehicle only
Experimental: HeLa cells were cultured in DMEM 4.5 g/l glucose medium containing 10% FCS, 1% L-glutamine and 1% penicillin and streptomycin (Biological Industries) and grown at 37° C. and 5% CO2.
as §2, §3, §4

EGR1 = EGR1 RNA expression by qRT-PCR in primary fibroblasts; type: cell-based, human; conditions: 5 μM over 72 hours, different time points (FIG. 3)
Experimental: as §1, §2
as §3, with “Cycling conditions were as follows: 95° C. for 10 minutes, 95° C. for 10 seconds, 62° C. for 15 seconds, and 72° C. for 25 seconds for a total of 40 cycles.” left out, “All samples were run in triplicate.” left out

[4] = system: human psoriatic skin graft; assay: Chimeric mice carrying human psoriatic skin; type: in vivo; conditions: for Clinical and histological psoriasiform phenotype (average improvement score) / Overt toxicity / Epidermal thickness / Keratinocyte proliferation (Ki67): i.p. five times a week; for Clinical and histological psoriasiform phenotype (average improvement score) / Overt toxicity: 10 days; for Clinical and histological psoriasiform phenotype (average improvement score): ApDx 5 mg/kg (p<0.0001), CaCx 15 mg/kg (p<0.05) (FIG. 6); for Overt toxicity / Epidermal thickness / Keratinocyte proliferation (Ki67): ApDx 5 mg/kg or CaCx 15 mg/kg; for Epidermal thickness / Keratinocyte proliferation (Ki67): biopsies after 10 days (FIGS. 7A-F, 8)
Text: Chimeric mice carrying human psoriatic skin were generated using SCID mice, 2-3 months of age. Animals were maintained in a pathogen-free animal facility. A psoriasis-like phenotype was induced in normal human skin grafted onto the mice by intradermal injection of natural killer/T cells derived from psoriatic patients as previously described [Gilhar A et al. J Invest Dermatol (2011) 131: 118-124].
Formaldehyde-fixed 5-μm paraffin-embedded sections from skin biopsies were deparaffinized and treated with 3% H2O2 in methanol for 15 minutes at room temperature, warmed in a microwave oven in citrate buffer in a pressure cooker for 25 minutes, and stained with a monoclonal anti-Ki67 antibody (Thermo Scientific) for 1 hour at room temperature. Following 3 washings (10 minutes each) with phosphate-buffered saline (PBS), the antibodies were imaged using the ABC technique (Zymed Laboratories, South San Francisco, CA) and the slides were counterstained with hematoxylin.
Epidermal thickness was defined as the distance between the granular layer and the basement membrane and was measured at 10 randomly selected locations for each biopsy using NIS-Elements BR 3.2 software (Nikon, NY USA). An image was taken and was manually measured in the software by selecting an upper and lower border, as defined above. The distance was measured in microns.
as §3
To assess the potential therapeutic role of the compounds (ApDx and CaCx) of some embodiments of the invention, the two compounds were administered systemically (i.p) to chimeric mice carrying human psoriatic skin. In short, SCID mice, 2-3 months of age, were maintained in a pathogen-free animal facility. A psoriasis-like phenotype was induced in normal human skin grafted onto the mice by intradermal injection of natural killer/T cells derived from psoriatic patients as previously described [Gilhar A et al. J Invest Dermatol (2011) 131: 118-124]. Two weeks after natural killer/T-cell injection (6 weeks after human skin grafting), mice were injected i.p. five times a week. Four groups of mice were treated as follows: one group of mice was injected five times a week with the vehicle; a second group of mice was injected five times a week ApDx (5 mg/kg); a third group of mice was injected five times a week CaCx (15 mg/kg); and a fourth group of mice, was treated with dexamethasone (DEX) cream applied 5 times a week on the graft, as positive control (DEX was expected to attenuate inflammation in this model). Each group included five mice, and the treatment was performed for a total of 10 days. The grafts were harvested from the four groups of mice, paraffin-embedded, stained for hematoxylin and eosin (H&E), analyzed and scored for the average improvement of the clinical and histological psoriasiform phenotype.

SAMD9 promoter = assay: High-throughput luciferase reporter screen in HeLa line stably expressing 585 bp SAMD9 promoter fragment; type: cell-based, human; conditions: Homo sapiens, HeLa; fold increase in promoter activity by luciferase assay vs cells treated with vehicle only; test drugs 10 μM, 24 hours; read-out: SAMD9 expression fold change in HeLa reporter assay
Experimental: HeLa cell lines stably expressing the constructs were generated under neomycin selection. Briefly, pGL4.17 containing a SAMD9 promoter fragment spanning 585 bp upstream to the TSS and an empty pGL4.17 vector were transfected into HeLa cells. Forty eight hours after transfection, standard medium was replaced with medium containing 600 μg/ml G418 (Sigma-Aldrich), cells were kept under G418 selection and the selective medium was replaced approximately every 2-3 days. After two passages, colonies of stable cells were isolated, expanded and frozen for further use.
Test drugs were dispensed at a concentration of 10 μM by a robotic system into 96-well plates containing 9000 cells/well expressing the pGL4.17 reporter construct carrying a 585 bp SAMD9 promoter fragment operably linked to luciferase gene or the empty pGL4.17 luciferase construct (Promega cat. no. E6721). Medium was removed after 24 hours and the cells subjected to Steady-Glo luciferase lysis-substrate solution assay (Promega) as described above. Liquid handling was done with the Tecan (Tecan) Freedom 150 (Robotic & MCA liquid Handling System) and the luciferase reading was done with a robot integrated Tecan Infinite® M1000 reader.
This cell line was then used to robotically screen a total of 1496 compounds obtained from the National Cancer Institute Diversity Set III and Oncology Drugs Set III small molecule libraries.

Compound	SAMD9 expression in primary fibroblasts (SAMD9 [1])	Dose and time dependence of SAMD9 up-regulation (SAMD9 [1])	SAMD9 expression in TERC-transformed fibroblasts (SAMD9 [2])	SAMD9 expression in HeLa cells (SAMD9 [3])	SAMD9 expression fold change in HeLa cells (SAMD9 [3])	EGR1 expression in primary fibroblast cells (EGR1)	Clinical and histological psoriasiform phenotype (average improvement score) [4]	Overt toxicity [4]	Epidermal thickness [4]	Keratinocyte proliferation (Ki67) [4]	fold induction at 10 µM (SAMD9 promoter)	EGR1 RNA levels in treated skin ([4]; quantitative PCR vs vehicle group (FIG. 9), CaCx 15 mg/kg i.p.)
CCCN1c2ccc(N)cc2S(=O)(=O)c2cc(Cl)cc(Cl)c21 [Compound 629971, 7,9-dichloro-5,5-dioxo-10-propylphenothiazin-3-amine]	significantly induce	both dose and time dependent	significantly induce	significantly induce	20.5 fold	significantly down-regulated	significant clinical and histological attenuation	No overt toxicity	significant decrease	significant decrease	4.85	–
Cc1c2ccnc(C(N)=O)c2c(C)c2c1[nH]c1ccccc12.Cl [Compound 335142, 6H-Pyrido[4,3-b]carbazole-1-carboxamide, 5,11-dimethyl-, monohydrochloride]	significantly induce	both dose and time dependent	significantly induce	significantly induce	6.44 fold	significantly down-regulated	significant clinical and histological attenuation	No overt toxicity	significant decrease	significant decrease	2.95	significant decrease
